Among the data in ChEMBL document CHEMBL6115030, “Systematic All-Hydrocarbon Stapling Analysis for Cecropin A Generates a Potent and Stable Antimicrobial Peptide” (J Med Chem, 2025) are MIC and Activity values, retold here.

Data set [1] deals with Pseudomonas aeruginosa. The data set is described as follows: Antibacterial activity against Carbapenem-resistant Pseudomonas aeruginosa assessed as inhibition of bacterial growth measured after 24 hrs by broth microdilution method. Type of data set: functional. A general note: Dilution methods test growth across graded concentrations, often in twofold steps.
The subject of data set [2] is Pseudomonas aeruginosa. The data set is described as follows: Antibacterial activity against Pseudomonas aeruginosa PAO1 assessed as inhibition of bacterial growth measured after 24 hrs by broth microdilution method. Type of data set: functional.
The subject of data set [3] is Klebsiella pneumoniae. The data set is described as follows: Antibacterial activity against Klebsiella pneumoniae ATCC 13883 assessed as inhibition of bacterial growth measured after 24 hrs by broth microdilution method. Type of data set: functional.
Data set [4] has as its system Pseudomonas aeruginosa. Description: Antibacterial activity against Pandrug-resistant Pseudomonas aeruginosa assessed as inhibition of bacterial growth measured after 24 hrs by broth microdilution method. Type of data set: functional.
A further data set relates to Shigella flexneri. Description: Antibacterial activity against Shigella flexneri 301 assessed as inhibition of bacterial growth measured after 24 hrs by broth microdilution method. Type of data set: functional.
Data set [5] in a line: Hemolytic activity in human RBC assessed as hemolysis incubated for 1 hr by microplate reader. Type of data set: toxicity, cell-based, Erythrocyte. The following applies: erythrocyte, 1 h.
For data set [6], the system named is Klebsiella pneumoniae. The data set is described as follows: Antibacterial activity against Carbapenem-resistant Klebsiella pneumoniae assessed as inhibition of bacterial growth measured after 24 hrs by broth microdilution method. Type of data set: functional.
Another data set has as its system Salmonella typhimurium. Description: Antibacterial activity against Salmonella typhimurium assessed as inhibition of bacterial growth measured after 24 hrs by broth microdilution method. Type of data set: functional, Salmonella enterica subsp. enterica serovar Typhimurium. The following applies: Salmonella enterica.
Another data set relates to Acinetobacter baumannii. Description: Antibacterial activity against Pandrug-resistant Acinetobacter baumannii assessed as inhibition of bacterial growth measured after 24 hrs by broth microdilution method. Type of data set: functional.
Another data set relates to Staphylococcus aureus. The data set is described as follows: Antibacterial activity against Staphylococcus aureus ATCC 25923 assessed as inhibition of bacterial growth measured after 24 hrs by broth microdilution method. Type of data set: functional.
Data set [7] deals with Escherichia coli. Description: In vivo antibacterial activity against Escherichia coli intraperitoneally injected into C57BL/6 mouse peritonitis model assessed as reduction in bacterial load in spleen at 2.5 mg/kg, ip measured after 48 hrs relative to control. Type of data set: functional, organism-based.
For data set [8], the system named is Escherichia coli. The data set is described as follows: In vivo antibacterial activity against Escherichia coli intraperitoneally injected into C57BL/6 mouse peritonitis model assessed as reduction in bacterial load in kidney at 2.5 mg/kg, ip measured after 48 hrs relative to control. Type of data set: functional, organism-based.
Data set [9] relates to Mus musculus. The data set is described as follows: In vivo anti-inflammatory efficacy in Escherichia coli intraperitoneally injected into C57BL/6 mouse peritonitis model assessed as reduction in IL-6 level in blood at 2.5 mg/kg, ip measured after 48 hrs by ELISA. Type of data set: functional, organism-based. A general note: An ELISA detects its analyte on a solid surface through an enzyme-linked reagent.

The subject of data set [10] is Escherichia coli. Description: In vivo antibacterial activity against Escherichia coli intraperitoneally injected into C57BL/6 mouse peritonitis model assessed as reduction in bacterial load in lung at 2.5 mg/kg, ip measured after 48 hrs relative to control. Type of data set: functional, organism-based.
Data set [11] deals with Mus musculus. Description: In vivo anti-inflammatory efficacy in Escherichia coli intraperitoneally injected into C57BL/6 mouse peritonitis model assessed as reduction in TNF-alpha level in blood at 2.5 mg/kg, ip measured after 48 hrs by ELISA. Type of data set: functional, organism-based.
Data set [12] has as its system Mus musculus. Description: In vivo anti-inflammatory efficacy in Escherichia coli intraperitoneally injected into C57BL/6 mouse peritonitis model assessed as reduction in IL-1beta level in blood at 2.5 mg/kg, ip measured after 48 hrs by ELISA. Type of data set: functional, organism-based.
Data set [13] deals with Escherichia coli. The data set is described as follows: In vivo antibacterial activity against Escherichia coli intraperitoneally injected into C57BL/6 mouse peritonitis model assessed as reduction in bacterial load in blood at 2.5 mg/kg, ip measured after 48 hrs relative to control. Type of data set: functional, organism-based.
The test system of data set [14] is Escherichia coli. The data set is described as follows: In vivo antibacterial activity against Escherichia coli intraperitoneally injected into C57BL/6 mouse peritonitis model assessed as reduction in bacterial load in liver at 2.5 mg/kg, ip measured after 48 hrs relative to control. Type of data set: functional, organism-based.
For data set [15], the system named is Escherichia coli. The data set is described as follows: In vivo antibacterial activity against Escherichia coli intraperitoneally injected into C57BL/6 mouse peritonitis model assessed as mouse survival at 2.5 mg/kg, ip measured after 48 hrs relative to control. Type of data set: functional.

Converted amounts (≈) assume the structure as drawn. The source made the active and inactive calls. Bridge positions count the residues as written; N and C are the ends. Square brackets hold non-standard residues; d marks the D form. Peptide text beside a SMILES is read from it. * marks the point of attachment. S5 = C=CCCC[C@](C)(N)C(=O)O; X1 = CC[C@H](C)CCCCC(=O)*; dDab = NCC[C@@H](N)C(=O)O; Dab = NCC[C@H](N)C(=O)O Where only a bound is given, the exact number is not on record here.

Usually MIC stands for the smallest concentration in the dilution series that meets the test's criterion for growth inhibition. Take `CC[C@H](C)[C@H](NC(=O)CNC(=O)[C@H](CC(=O)O)NC(=O)[C@H](CCCNC(=N)N)NC(=O)[C@@H](NC(=O)[C@H](CC(N)=O)NC(=O)[C@H](CCC(N)=O)NC(=O)CNC(=O)[C@@H](NC(=O)[C@H](CCCCN)NC(=O)[C@H](CCC(=O)O)NC(=O)[C@@H](NC(=O)[C@H](CCCCN)NC(=O)[C@H](CCCCN)NC(=O)[C@H](Cc1ccccc1)NC(=O)[C@H](CC(C)C)NC(=O)[C@H](CCCCN)NC(=O)[C@H](Cc1c[nH]c2ccccc12)NC(=O)[C@H](CCCCN)NC(C)=O)[C@@H](C)CC)C(C)C)[C@@H](C)CC)C(=O)N[C@H](C(=O)N[C@@H](CCCCN)C(=O)N[C@@H](C)C(=O)NCC(=O)N1CCC[C@H]1C(=O)N[C@@H](C)C(=O)N[C@@]1(C)CCC/C=C\CCC[C@@](C)(C(=O)N[C@@H](CCC(N)=O)C(=O)N[C@@H](C)C(=O)N[C@H](C(=O)N[C@@H](CCC(N)=O)C(=O)N[C@H](C(=O)N[C@@H](C)C(=O)N[C@@H](CCCCN)C(N)=O)[C@@H](C)CC)[C@@H](C)O)NC(=O)[C@H](C(C)C)NC(=O)[C@H](C(C)C)NC(=O)[C@H](C)NC1=O)[C@@H](C)CC` (Ac-KWKLFKKIEKVGQNIRDGIIKAGPA[S5]AVV[S5]QATQIAK-NH2; staple (Z) 26-30): the MIC is above 100 µM with Pseudomonas aeruginosa [1]; 6.25 µM (≈ 25.9 µg/mL) with Pseudomonas aeruginosa [2]; 3.13 µM (≈ 13 µg/mL) in the data set on Klebsiella pneumoniae [3]; 25 µM (≈ 104 µg/mL) with Pseudomonas aeruginosa [4]; 1.56 µM (≈ 6.46 µg/mL) with Shigella flexneri; 12.5 µM (≈ 51.8 µg/mL) in the data set with Klebsiella pneumoniae [6]. Further, the MIC with Salmonella typhimurium was 6.25 µM (≈ 25.9 µg/mL); in the data set with Acinetobacter baumannii, below 0.78 µM; in the data set with Staphylococcus aureus it was 3.13 µM (≈ 13 µg/mL). Further, the Activity entry in data set [5] is recorded as “Non-toxic”.

Take `CC[C@H](C)[C@H](NC(=O)CNC(=O)[C@H](CC(=O)O)NC(=O)[C@H](CCCNC(=N)N)NC(=O)[C@@H](NC(=O)[C@H](CC(N)=O)NC(=O)[C@H](CCC(N)=O)NC(=O)CNC(=O)[C@@H](NC(=O)[C@H](CCCCN)NC(=O)[C@H](CCC(=O)O)NC(=O)[C@@H](NC(=O)[C@H](CCCCN)NC(=O)[C@H](CCCCN)NC(=O)[C@H](Cc1ccccc1)NC(=O)[C@H](CC(C)C)NC(=O)[C@H](CCCCN)NC(=O)[C@H](Cc1c[nH]c2ccccc12)NC(=O)[C@H](CCCCN)NC(C)=O)[C@@H](C)CC)C(C)C)[C@@H](C)CC)C(=O)N[C@H](C(=O)N[C@@H](CCCCN)C(=O)N[C@@H](C)C(=O)NCC(=O)N1CCC[C@H]1C(=O)N[C@@H](C)C(=O)N[C@H](C(=O)N[C@@H](C)C(=O)N[C@H](C(=O)N[C@@]1(C)CCC/C=C\CCC[C@@](C)(C(=O)N[C@@H](CCC(N)=O)C(=O)N[C@H](C(=O)N[C@@H](C)C(=O)N[C@@H](CCCCN)C(N)=O)[C@@H](C)CC)NC(=O)[C@H](C)NC(=O)[C@H](CCC(N)=O)NC(=O)CNC1=O)C(C)C)C(C)C)[C@@H](C)CC` (Ac-KWKLFKKIEKVGQNIRDGIIKAGPAVAV[S5]GQA[S5]QIAK-NH2; staple (Z) 29-33): the MIC is above 100 µM in the data set with Pseudomonas aeruginosa [1]; 6.25 µM (≈ 25.6 µg/mL) with Pseudomonas aeruginosa [2]; 1.56 µM (≈ 6.39 µg/mL) with Klebsiella pneumoniae [3]; 25 µM (≈ 102 µg/mL) in the data set on Pseudomonas aeruginosa [4]; below 0.78 µM in the data set with Shigella flexneri; 3.13 µM (≈ 12.8 µg/mL) in the data set on Klebsiella pneumoniae [6]. The MIC with Salmonella typhimurium is 1.5 µM (≈ 6.14 µg/mL); with Acinetobacter baumannii, below 0.78 µM; in the data set with Staphylococcus aureus it was 1.56 µM (≈ 6.39 µg/mL).

For the molecule `CC(C)CCCCC(=O)N[C@@H](CCN)C(=O)N[C@H](C(=O)N[C@@H](CCN)C(=O)N[C@H]1CCNC(=O)[C@H]([C@@H](C)O)NC(=O)[C@H](CCN)NC(=O)[C@H](CCN)NC(=O)[C@H](CC(C)C)NC(=O)[C@@H](Cc2ccccc2)NC(=O)[C@@H](CCN)NC1=O)[C@@H](C)O.CC[C@H](C)CCCCC(=O)N[C@@H](CCN)C(=O)N[C@H](C(=O)N[C@@H](CCN)C(=O)N[C@H]1CCNC(=O)[C@H]([C@@H](C)O)NC(=O)[C@H](CCN)NC(=O)[C@H](CCN)NC(=O)[C@H](CC(C)C)NC(=O)[C@@H](Cc2ccccc2)NC(=O)[C@@H](CCN)NC1=O)[C@@H](C)O` (X1-[Dab]T[Dab][Dab][dDab][dF]L[Dab][Dab]T; lactam 4-C), the result in the data set with Escherichia coli [7], in the data set on Escherichia coli [8], in the data set on Mus musculus [9], in the data set with Escherichia coli [10], in the data set with Mus musculus [11] and with Mus musculus [12] was Active. Besides, the outcome in the data set with Escherichia coli [13] and in the data set on Escherichia coli [14] was Active.

`CC(C)CCCCC(=O)N[C@@H](CCN)C(=O)N[C@H](C(=O)N[C@@H](CCN)C(=O)N[C@H]1CCNC(=O)[C@H]([C@@H](C)O)NC(=O)[C@H](CCN)NC(=O)[C@H](CCN)NC(=O)[C@H](CC(C)C)NC(=O)[C@@H](Cc2ccccc2)NC(=O)[C@H](CCN)NC1=O)[C@@H](C)O.CC[C@H](C)CCCCC(=O)N[C@@H](CCN)C(=O)N[C@H](C(=O)N[C@@H](CCN)C(=O)N[C@H]1CCNC(=O)[C@H]([C@@H](C)O)NC(=O)[C@H](CCN)NC(=O)[C@H](CCN)NC(=O)[C@H](CC(C)C)NC(=O)[C@@H](Cc2ccccc2)NC(=O)[C@H](CCN)NC1=O)[C@@H](C)O` (X1-[Dab]T[Dab][Dab][Dab][dF]L[Dab][Dab]T; lactam 4-C): in the data set on Escherichia coli [15], the Activity is 100%.

Take `CC[C@H](C)[C@H](NC(=O)CNC(=O)[C@H](CC(=O)O)NC(=O)[C@H](CCCNC(=N)N)NC(=O)[C@@H](NC(=O)[C@H](CC(N)=O)NC(=O)[C@H](CCC(N)=O)NC(=O)CNC(=O)[C@@H](NC(=O)[C@H](CCCCN)NC(=O)[C@H](CCC(=O)O)NC(=O)[C@@H](NC(=O)[C@H](CCCCN)NC(=O)[C@H](CCCCN)NC(=O)[C@H](Cc1ccccc1)NC(=O)[C@H](CC(C)C)NC(=O)[C@H](CCCCN)NC(=O)[C@H](Cc1c[nH]c2ccccc12)NC(=O)[C@H](CCCCN)NC(C)=O)[C@@H](C)CC)C(C)C)[C@@H](C)CC)C(=O)N[C@H](C(=O)N[C@@H](CCCCN)C(=O)N[C@@H](C)C(=O)NCC(=O)N1CCC[C@H]1C(=O)N[C@@]1(C)CCC/C=C\CCC[C@@](C)(C(=O)NCC(=O)N[C@@H](CCC(N)=O)C(=O)N[C@@H](C)C(=O)N[C@H](C(=O)N[C@@H](CCC(N)=O)C(=O)N[C@H](C(=O)N[C@@H](C)C(=O)N[C@@H](CCCCN)C(N)=O)[C@@H](C)CC)[C@@H](C)O)NC(=O)[C@H](C(C)C)NC(=O)[C@H](C)NC(=O)[C@H](C(C)C)NC1=O)[C@@H](C)CC` (Ac-KWKLFKKIEKVGQNIRDGIIKAGP[S5]VAV[S5]GQATQIAK-NH2; staple (Z) 25-29): the MIC with Pseudomonas aeruginosa [1] was above 100 µM; in the data set with Pseudomonas aeruginosa [2] it was 6.25 µM (≈ 25.8 µg/mL); with Klebsiella pneumoniae [3], 3.13 µM (≈ 12.9 µg/mL); in the data set on Pseudomonas aeruginosa [4], 25 µM (≈ 103 µg/mL); with Shigella flexneri, 1.56 µM (≈ 6.44 µg/mL); in the data set on Klebsiella pneumoniae [6], 6.25 µM (≈ 25.8 µg/mL). For the same molecule, the MIC in the data set on Salmonella typhimurium is 3.13 µM (≈ 12.9 µg/mL); in the data set with Acinetobacter baumannii, below 0.78 µM; in the data set with Staphylococcus aureus, 3.13 µM (≈ 12.9 µg/mL). The Activity result in [5] is on record as “Non-toxic”.
